Results reported in patent US20250195530A1, “POLQ INHIBITORS” (ASTRAZENECA AB, priority 2022, published 2025).

Tested on: DLD-1 BRCA2−/− cells
Assay: Homologous recombination synthetic lethal inhibition of proliferation, DLD-1 BRCA2-/- (Cell Titre Glo 3D)
Type: cell-based
Details: Homo sapiens, DLD-1, first proliferation column (c5); DLD-1 BRCA2-/-; read-out: POLQ PD Prolif Lumin (converted)
How it was run: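 Proliferation of HR-deficient DLD-1 BRCA2−/− versus isogenic wild-type DLD-1 was measured by ATP luminescence (CellTiter-Glo 3D). Compound exposure lasted 12 or 7 days, respectively, with a fresh dose on day 6. IC50 was the concentration halving maximal signal.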

Structure (SMILES) | IC50 [nM]
Cc1ccnc(Cn2c(-c3ccc(O[C@H]4CCN(C(=O)CO)C4)cc3Cl)nc3c(OC4(C)CC4)ncnc32)c1 [Example T483, (S)-1-(3-(3-chloro-4-(6-(1-methylcyclopropoxy)-9-((4-methylpyridin-2-yl)methyl)-9H-purin-8-yl)phenoxy)pyrrolidin-1-yl)-2-hydroxyethan-1-one] | 631
CC1(Oc2ncnc3c2nc(-c2ccc(OCCN4C[C@H]5C[C@@H]4CN5)cc2Cl)n3Cc2cc(Cl)ccn2)CC1 [Example T485, 8-(4-(2-((1R,4R)-2,5-diazabicyclo[2.2.1]heptan-2-yl)ethoxy)-2-chlorophenyl)-9-((4-chloropyridin-2-yl)methyl)-6-(1-methylcyclopropoxy)-9H-purine] | 501
CC1(Oc2ncnc3c2nc(-c2ccc(OCCN4CC5(CCN5)C4)cc2Cl)n3Cc2cc(Cl)ccn2)CC1 [Example T486, 8-(4-(2-(1,6-diazaspiro[3.3]heptan-6-yl)ethoxy)-2-chlorophenyl)-9-((4-chloropyridin-2-yl)methyl)-6-(1-methylcyclopropoxy)-9H-purine] | 501

Same assay, conditions: Homo sapiens, DLD-1, proliferation, luminescence, taken as DLD-1 BRCA2-/-; read-out: POLQ PD Prolif Lumin (converted)

Structure (SMILES) | IC50 [nM]
Cc1ccnc(Cn2c(-c3ccc(OCC(=O)N(C)CCC#N)cc3Cl)nc3c(OC4(C)CC4)ncnc32)c1 [Example T430, 2-(3-chloro-4-(6-(1-methylcyclopropoxy)-9-((4-methylpyridin-2-yl)methyl)-9H-purin-8-yl)phenoxy)-N-(2-cyanoethyl)-N-methylacetamide] | 501
Cc1ccnc(Cn2c(-c3ccc(OCC(=O)N4CCNC(=O)C4)cc3Cl)nc3c(OC4(C)CC4)ncnc32)c1 [Example T432, 4-(2-(3-chloro-4-(6-(1-methylcyclopropoxy)-9-((4-methylpyridin-2-yl)methyl)-9H-purin-8-yl)phenoxy)acetyl)piperazin-2-one] | > 6310
CC(C)(COc1ccc(-c2nc3c(OC4(C)CC4)ncnc3n2Cc2cccc(Cl)c2)c(Cl)c1)CC(=O)O [Example T436, 4-(3-chloro-4-(9-(3-chlorobenzyl)-6-(1-methylcyclopropoxy)-9H-purin-8-yl)phenoxy)-3,3-dimethylbutanoic acid] | 200
CC1(Oc2ncnc3c2nc(-c2cccc(OCCC(C)(C)C(=O)O)c2Cl)n3Cc2cccc(Cl)c2)CC1 [Example T442, 4-(2-chloro-3-(9-(3-chlorobenzyl)-6-(1-methylcyclopropoxy)-9H-purin-8-yl)phenoxy)-2,2-dimethylbutanoic acid] | 79.4
Cc1ccnc(Cn2c(-c3ccc(CC(=O)N4CC[C@@H](O)C4)cc3Cl)nc3c(OC4(C)CC4)ncnc32)c1 [Example T458, (R)-2-(3-chloro-4-(6-(1-methylcyclopropoxy)-9-((4-methylpyridin-2-yl)methyl)-9H-purin-8-yl)phenyl)-1-(3-hydroxypyrrolidin-1-yl)ethan-1-one] | 631
Cc1ccnc(Cn2c(-c3ccc(C(=O)N4CCC[C@@H]4CO)cc3Cl)nc3c(OC4(C)CC4)ncnc32)c1 [Example T459, (R)-(3-chloro-4-(6-(1-methylcyclopropoxy)-9-((4-methylpyridin-2-yl)methyl)-9H-purin-8-yl)phenyl)(2-(hydroxymethyl)pyrrolidin-1-yl)methanone] | 1260
Cc1ccnc(Cn2c(-c3ccc(C(=O)N4CCC[C@H](O)C4)cc3Cl)nc3c(OC4(C)CC4)ncnc32)c1 [Example T461, (S)-(3-chloro-4-(6-(1-methylcyclopropoxy)-9-((4-methylpyridin-2-yl)methyl)-9H-purin-8-yl)phenyl)(3-hydroxypiperidin-1-yl)methanone] | 1260
Cc1ccnc(Cn2c(-c3ccc(C(=O)N(C)CC4(O)CC4)cc3Cl)nc3c(OC4(C)CC4)ncnc32)c1 [Example T462, 3-chloro-N-((1-hydroxycyclopropyl)methyl)-N-methyl-4-(6-(1-methylcyclopropoxy)-9-((4-methylpyridin-2-yl)methyl)-9H-purin-8-yl)benzamide] | 1580
Cc1ccnc(Cn2c(-c3ccc(C(=O)N4CC[C@@](C)(O)C4)cc3Cl)nc3c(OC4(C)CC4)ncnc32)c1 [Example T463, (R)-(3-chloro-4-(6-(1-methylcyclopropoxy)-9-((4-methylpyridin-2-yl)methyl)-9H-purin-8-yl)phenyl)(3-hydroxy-3-methylpyrrolidin-1-yl)methanone] | 1580
Cc1ccnc(Cn2c(-c3ccc(C(=O)N4CC[C@@H](CO)C4)cc3Cl)nc3c(OC4(C)CC4)ncnc32)c1 [Example T464, (R)-(3-chloro-4-(6-(1-methylcyclopropoxy)-9-((4-methylpyridin-2-yl)methyl)-9H-purin-8-yl)phenyl)(3-(hydroxymethyl)pyrrolidin-1-yl)methanone] | 1580
CO[C@H]1CCN(C(=O)c2ccc(-c3nc4c(OC5(C)CC5)ncnc4n3Cc3cc(C)ccn3)c(Cl)c2)C1 [Example T465, (S)-(3-chloro-4-(6-(1-methylcyclopropoxy)-9-((4-methylpyridin-2-yl)methyl)-9H-purin-8-yl)phenyl)(3-methoxypyrrolidin-1-yl)methanone] | 631
Cc1ccnc(Cn2c(-c3ccc(C(=O)N4CCC[C@H]4CO)cc3Cl)nc3c(OC4(C)CC4)ncnc32)c1 [Example T466, (S)-(3-chloro-4-(6-(1-methylcyclopropoxy)-9-((4-methylpyridin-2-yl)methyl)-9H-purin-8-yl)phenyl)(2-(hydroxymethyl)pyrrolidin-1-yl)methanone] | 1000
Cc1ccnc(Cn2c(-c3ccc(OCC(=O)N4CCCC4)cc3Cl)nc3c(OC4(C)CC4)ncnc32)c1 [Example T467, 2-(3-chloro-4-(6-(1-methylcyclopropoxy)-9-((4-methylpyridin-2-yl)methyl)-9H-purin-8-yl)phenoxy)-1-(pyrrolidin-1-yl)ethan-1-one] | 316
Cc1ccnc(Cn2c(-c3ccc(OCCN4CCCC4=O)cc3Cl)nc3c(OC4(C)CC4)ncnc32)c1 [Example T469, 1-(2-(3-chloro-4-(6-(1-methylcyclopropoxy)-9-((4-methylpyridin-2-yl)methyl)-9H-purin-8-yl)phenoxy)ethyl)pyrrolidin-2-one] | 158
CCC(=O)N1CC(Oc2ccc(-c3nc4c(OC5(C)CC5)ncnc4n3Cc3cc(C)ccn3)c(Cl)c2)C1 [Example T471, 1-(3-(3-chloro-4-(6-(1-methylcyclopropoxy)-9-((4-methylpyridin-2-yl)methyl)-9H-purin-8-yl)phenoxy)azetidin-1-yl)propan-1-one] | 158
CC(=O)N1CC[C@@H](Oc2ccc(-c3nc4c(OC5(C)CC5)ncnc4n3Cc3cc(C)ccn3)c(Cl)c2)C1 [Example T472, (R)-1-(3-(3-chloro-4-(6-(1-methylcyclopropoxy)-9-((4-methylpyridin-2-yl)methyl)-9H-purin-8-yl)phenoxy)pyrrolidin-1-yl)ethan-1-one] | 200
Cc1ccnc(Cn2c(-c3ccc(OCC(=O)N4CC[C@@H](O)C4)cc3Cl)nc3c(OC4(C)CC4)ncnc32)c1 [Example T473, (R)-2-(3-chloro-4-(6-(1-methylcyclopropoxy)-9-((4-methylpyridin-2-yl)methyl)-9H-purin-8-yl)phenoxy)-1-(3-hydroxypyrrolidin-1-yl)ethan-1-one] | 1000
Cc1ccnc(Cn2c(-c3ccc(OCCN4CC[C@@H](O)C4=O)cc3Cl)nc3c(OC4(C)CC4)ncnc32)c1 [Example T474, (R)-1-(2-(3-chloro-4-(6-(1-methylcyclopropoxy)-9-((4-methylpyridin-2-yl)methyl)-9H-purin-8-yl)phenoxy)ethyl)-3-hydroxypyrrolidin-2-one] | 251
Cc1ccnc(Cn2c(-c3ccc(OCC(=O)N4CCOCC4)cc3Cl)nc3c(OC4(C)CC4)ncnc32)c1 [Example T475, 2-(3-chloro-4-(6-(1-methylcyclopropoxy)-9-((4-methylpyridin-2-yl)methyl)-9H-purin-8-yl)phenoxy)-1-morpholinoethan-1-one] | 251
Cc1ccnc(Cn2c(-c3ccc(OCC(=O)NC4(C)COC4)cc3Cl)nc3c(OC4(C)CC4)ncnc32)c1 [Example T476, 2-(3-chloro-4-(6-(1-methylcyclopropoxy)-9-((4-methylpyridin-2-yl)methyl)-9H-purin-8-yl)phenoxy)-N-(3-methyloxetan-3-yl)acetamide] | 251
Cc1ccnc(Cn2c(-c3ccc(OCC(=O)N4CC(C)(O)C4)cc3Cl)nc3c(OC4(C)CC4)ncnc32)c1 [Example T477, 2-(3-chloro-4-(6-(1-methylcyclopropoxy)-9-((4-methylpyridin-2-yl)methyl)-9H-purin-8-yl)phenoxy)-1-(3-hydroxy-3-methylazetidin-1-yl)ethan-1-one] | 1260
Cc1ccnc(Cn2c(-c3ccc(OCC(=O)N[C@@H]4CCOC4)cc3Cl)nc3c(OC4(C)CC4)ncnc32)c1 [Example T478, (R)-2-(3-chloro-4-(6-(1-methylcyclopropoxy)-9-((4-methylpyridin-2-yl)methyl)-9H-purin-8-yl)phenoxy)-N-(tetrahydrofuran-3-yl)acetamide] | 501
Cc1ccnc(Cn2c(-c3ccc(OCC(=O)NC4CC(O)C4)cc3Cl)nc3c(OC4(C)CC4)ncnc32)c1 (stereo not shown) [Example T479, 2-(3-chloro-4-(6-(1-methylcyclopropoxy)-9-((4-methylpyridin-2-yl)methyl)-9H-purin-8-yl)phenoxy)-N-(3-hydroxycyclobutyl)acetamide] | 398
Cc1ccnc(Cn2c(-c3ccc(OCC(=O)N(C)C4COC4)cc3Cl)nc3c(OC4(C)CC4)ncnc32)c1 [Example T480, 2-(3-chloro-4-(6-(1-methylcyclopropoxy)-9-((4-methylpyridin-2-yl)methyl)-9H-purin-8-yl)phenoxy)-N-methyl-N-(oxetan-3-yl)acetamide] | 501
Cc1ccnc(Cn2c(-c3ccc(OCCN4CCOCC4=O)cc3Cl)nc3c(OC4(C)CC4)ncnc32)c1 [Example T481, 4-(2-(3-chloro-4-(6-(1-methylcyclopropoxy)-9-((4-methylpyridin-2-yl)methyl)-9H-purin-8-yl)phenoxy)ethyl)morpholin-3-one] | 316
